# Results taken from ChEMBL document CHEMBL3751679, “DNA cleavage at the AP site via β-elimination mediated by the AP site-binding ligands” (Bioorg Med Chem, 2016).
# Activity calls are given as the source filed them. The calls are words filed in the database; no cut-off is given here.
# What was measured:
# Homo sapiens [1] = species on record: Homo sapiens; experiment: Binding affinity to duplex DNA1(AP)/DNA2(C) (unknown origin) assessed as beta-elimination product formation at 10 uM pH 7 by gel electrophoresis
# Homo sapiens [2] = species on record: Homo sapiens; experiment: Binding affinity to duplex DNA1(AP)/DNA2(T) (unknown origin) assessed as beta-elimination product formation at 10 uM pH 7 by gel electrophoresis
# Homo sapiens [3] = species on record: Homo sapiens; experiment: Binding affinity to duplex DNA1(AP)/DNA2(G) (unknown origin) assessed as beta-elimination product formation at 10 uM pH 7 by gel electrophoresis
# Homo sapiens [4] = species on record: Homo sapiens; experiment: Binding affinity to duplex DNA1(AP)/DNA2(C) (unknown origin) assessed as APE1 catalyzed beta-elimination product formation by gel electrophoresis
# Homo sapiens [5] = species on record: Homo sapiens; experiment: Binding affinity to duplex DNA1(AP)/DNA2(A) (unknown origin) assessed as beta-elimination product formation at 10 uM pH 7 by gel electrophoresis
# Homo sapiens [6] = species on record: Homo sapiens; experiment: Binding affinity to duplex DNA1(AP)/DNA2(C) (unknown origin) assessed as beta-elimination product formation after 1 hr at pH 8 by gel electrophoresis
# Homo sapiens [7] = species on record: Homo sapiens; experiment: Binding affinity to duplex DNA1(AP)/DNA2(C) (unknown origin) assessed as beta-elimination product formation by HPLC analysis
# Homo sapiens [8] = species on record: Homo sapiens; experiment: Binding affinity to duplex DNA1(AP)/DNA2(G) (unknown origin) assessed as APE1 catalyzed beta-elimination product formation by gel electrophoresis
# Homo sapiens [9] = species on record: Homo sapiens; experiment: Binding affinity to duplex DNA1(AP)/DNA2(A) (unknown origin) assessed as APE1 catalyzed beta-elimination product formation by gel electrophoresis
# Homo sapiens [10] = species on record: Homo sapiens; experiment: Binding affinity to duplex DNA1(AP)/DNA2(T) (unknown origin) assessed as APE1 catalyzed beta-elimination product formation by gel electrophoresis
SMILES,Activity (Homo sapiens [1]),Activity (Homo sapiens [2]),Activity (Homo sapiens [3]),Activity (Homo sapiens [5]),Activity (Homo sapiens [4]),further results
NCCCNCCCNCCCn1ccc(N)nc1=O,–,–,–,–,–,Activity (Homo sapiens [8]): inactive
Cc1cn(CCCNCCCNCCCN)c(=O)[nH]c1=O,–,–,–,–,–,Activity (Homo sapiens [9]): inactive
NCCCNCCCN,–,–,–,–,inactive,–

# Now from value to compound, other results behind:
Activity (Homo sapiens [1]),Activity (Homo sapiens [2]),Activity (Homo sapiens [3]),Activity (Homo sapiens [5]),SMILES,Activity (Homo sapiens [4]),further results
Active,inactive,inactive,inactive,NCCCNCCCNCCCn1cnc2c(=O)[nH]c(N)nc21,Active,Activity (Homo sapiens [6]): Active; Activity (Homo sapiens [7]): Active
Active,Active,Active,Active,NCCCNCCCNCCCn1cnc2c(N)ncnc21,–,Activity (Homo sapiens [10]): Active
